These results are taken from patent publication US10640495B2, “Heterocycle derivatives having TrkA inhibitory activity” (Shionogi & Co., Ltd., priority 2015, dated 2020).

The target in the assay is human TrkA (Homo sapiens (Human), UniProt P04629). In words: Human TrkA inhibition assay (Test Example 2). The format is biochemical. The procedure, abridged:
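Recombinant TrkA (1 nmol/L) was preincubated 15 min at room temperature with compound in HEPES/MgCl2/DTT buffer, then reacted with FL-peptide 27 (1.5 μmol/L) and ATP (500 μmol/L) for 120 min at 37 °C. After EDTA stop, substrate phosphorylation was read by microfluidic mobility shift. IC50 came from logistic regression over 3-fold dilution series.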

Setting [1] is: Table 155, human TrkA inhibition, read-out: IC50.
Where [2] appears, read: Table 156, human TrkA inhibition, read-out: IC50.
Setting [3] is: Table 157, human TrkA inhibition, read-out: IC50.

SMILES strings stand for the structures. Like-named read-outs stand apart in the source and are kept apart here.

Chain of human TrkA (P04629 440-796): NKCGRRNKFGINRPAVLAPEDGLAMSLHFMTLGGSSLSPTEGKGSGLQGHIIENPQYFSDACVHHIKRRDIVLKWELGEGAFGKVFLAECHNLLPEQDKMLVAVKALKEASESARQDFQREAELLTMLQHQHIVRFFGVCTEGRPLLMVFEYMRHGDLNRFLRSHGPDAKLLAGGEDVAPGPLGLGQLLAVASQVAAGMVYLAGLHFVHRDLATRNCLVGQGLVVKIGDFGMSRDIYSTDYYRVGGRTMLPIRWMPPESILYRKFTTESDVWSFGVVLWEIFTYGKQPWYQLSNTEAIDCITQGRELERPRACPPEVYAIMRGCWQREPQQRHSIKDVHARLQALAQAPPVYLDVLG

As usually defined, the IC50 is the concentration that inhibits the measured activity by half. As for `COCCN1C[C@@H](NC(=O)Nc2c(C)c(-c3ccn(C)c(=O)c3)nn2-c2ccccc2)[C@H](c2ccnc(F)c2)O1` (racemic) [Compound I-495], the IC50 under setting [1] is < 100 nM.

As to `COCCN1C[C@@H](NC(=O)Nc2c(C)c(-c3ccc(=O)n(C)c3)nn2-c2ccccc2)[C@H](c2ccnc(F)c2)O1` (racemic) [Compound I-496], the IC50 under setting [1] was < 100 nM.

`COCCN1C[C@@H](NC(=O)Nc2c(C)c(OCc3cc(OC)ccn3)nn2-c2ccccc2)[C@H](c2ccnc(F)c2)O1` (racemic) [Compound I-501]: the IC50 under setting [1] is < 100 nM.

As for `COCCN1C[C@@H](NC(=O)Nc2c(C)c(OCC3CC3)nn2-c2ccccc2)[C@H](c2ccnc(F)c2)O1` (racemic) [Compound I-502], the IC50 under setting [1] is < 100 nM.

As to `COCCN1C[C@@H](NC(=O)Nc2c(C)c(OCC3COC3)nn2-c2ccccc2)[C@H](c2ccnc(F)c2)O1` (racemic) [Compound I-503], under setting [1], the IC50 was < 100 nM.

As for `COCCN1C[C@@H](NC(=O)Nc2c(C)c(-c3cnc(N4CCNOCC4)nc3)nn2-c2ccccc2)[C@H](c2ccnc(F)c2)O1` (racemic) [Compound I-507], the IC50 under setting [1] was < 100 nM.

On to `COCCOc1ncc(-c2nn(-c3ccccc3)c(NC(=O)N[C@@H]3CN(CCOC)O[C@H]3c3ccnc(F)c3)c2C)cn1` (racemic) [Compound I-511], for which the IC50 under setting [1] is < 100 nM.

`COCCN1C[C@@H](NC(=O)Nc2c(C)c(-c3cnc(C4CCOCC4)nc3)nn2-c2ccccc2)[C@H](c2ccnc(F)c2)O1` (racemic) [Compound I-513]: the IC50 under setting [1] is < 100 nM.

Turning to `COCCN1C[C@@H](NC(=O)Nc2c(C)c(-c3cnnc(OC)c3)nn2-c2ccccc2)[C@H](c2ccnc(F)c2)O1` (racemic) [Compound I-515], the 50% inhibitory concentration (IC50) under setting [2] is < 100 nM.

With `COCCN1C[C@@H](NC(=O)Nc2c(C)c(-c3cnc4occc4c3)nn2-c2ccccc2)[C@H](c2ccnc(F)c2)O1` (racemic) [Compound I-517], under setting [2], the IC50 was < 100 nM.

Regarding `COCCN1C[C@@H](NC(=O)Nc2c(C)c(C)nn2-c2ccccc2)[C@H](c2ccnc(F)c2)O1` (racemic) [Compound I-522], the IC50 under setting [2] was < 100 nM.

For `CCOc1nn(-c2ccccc2)c(NC(=O)N[C@@H]2CN(CCOC)O[C@H]2c2ccnc(F)c2)c1C` (racemic) [Compound I-523], under setting [2], the IC50 was < 100 nM.

`COCCN1C[C@@H](NC(=O)Nc2c(C)c(-c3cnc(NCC(F)(F)F)nc3)nn2-c2ccccc2)[C@H](c2ccnc(F)c2)O1` (racemic) [Compound I-524]: under setting [2], the IC50 is < 100 nM.

Regarding `COc1ncc(-c2nn(-c3ccccc3)c(NC(=O)N[C@@H]3CN(CCF)O[C@H]3c3ccc(F)c(F)c3)c2C)cn1` (racemic) [Compound I-525], under setting [2], the IC50 is < 100 nM.

On to `COc1ncc(-c2nn(-c3ccccc3)c(NC(=O)N[C@@H]3CN(CC(F)F)O[C@H]3c3ccc(F)c(F)c3)c2C)cn1` (racemic) [Compound I-526], for which the IC50 (human TrkA 1 nmol/L, ATP 500 μmol/L, 120 min at 37° C., read-out: IC50 values (TrkA phosphorylation inhibition)) came out at 22 nM.

For the compound `COc1ncc(-c2nn(-c3ccccc3)c(NC(=O)N[C@@H]3CN(C(C)C)O[C@H]3c3ccc(F)c(F)c3)c2C)cn1` (racemic) [Compound I-527], the IC50 under setting [2] is < 100 nM.

Regarding `COCCN1C[C@@H](NC(=O)Nc2c(C)c(-c3cnc(CN(C)C)nc3)nn2-c2ccccc2)[C@H](c2ccc(F)c(F)c2)O1` (racemic) [Compound I-528], under setting [2], the IC50 is < 100 nM.

On to `COCCN1C[C@@H](NC(=O)Nc2c(C)c(-c3ccnc(C)c3)nn2-c2ccccc2)[C@H](c2ccnc(F)c2)O1` (racemic) [Compound I-529], for which the IC50 under setting [2] was < 100 nM.

Turning to `COCCN1C[C@@H](NC(=O)Nc2c(C)c(-c3cnc4c(c3)CCO4)nn2-c2ccccc2)[C@H](c2ccnc(F)c2)O1` (racemic) [Compound I-530], the concentration for half-maximal inhibition (IC50) under setting [2] was < 100 nM.

As to `COCCN1C[C@@H](NC(=O)Nc2c(C)c(-c3cnc(N4CCC(N(C)C)CC4)nc3)nn2-c2ccccc2)[C@H](c2ccnc(F)c2)O1` (racemic) [Compound I-532], the IC50 under setting [2] is < 100 nM.

Turning to `COCCN1C[C@@H](NC(=O)Nc2c(C)c(C(F)(F)F)nn2-c2ccccc2)[C@H](c2ccnc(F)c2)O1` (racemic) [Compound I-534], under setting [2], the IC50 was < 100 nM.

In the case of `CCN1C[C@@H](NC(=O)Nc2c(C)c(-c3cnc4c(c3)oc(=O)n4C)nn2-c2ccccc2)[C@H](c2ccc(F)c(F)c2)O1` (racemic) [Compound I-539], the IC50 under setting [2] was < 100 nM.

Take `CCN1C[C@@H](NC(=O)Nc2c(C)c(-c3cnc(N4CCN(C)CC4)nc3)nn2-c2ccccc2)[C@H](c2ccc(F)c(F)c2)O1` (racemic) [Compound I-540]: the IC50 under setting [2] is < 100 nM.

For `CCOc1nn(-c2ccccc2)c(NC(=O)N[C@@H]2CN(CC)O[C@H]2c2ccc(F)cc2)c1C` (racemic) [Compound I-541], the IC50 under setting [2] is < 100 nM.

Take `CCOc1nn(-c2ccccc2)c(NC(=O)N[C@@H]2CN(CC)O[C@H]2c2ccc(F)c(F)c2)c1C` (racemic) [Compound I-542]: the IC50 under setting [2] is < 100 nM.

Consider `CCN1C[C@@H](NC(=O)Nc2c(C)c(-c3ccn(C)c(=O)c3)nn2-c2ccccc2)[C@H](c2ccc(F)c(F)c2)O1` (racemic) [Compound I-543], for which the IC50 under setting [2] was < 100 nM.

In the case of `CCN1C[C@@H](NC(=O)Nc2c(C)c(-c3cnc(OC)c(C(=O)NC4CCOCC4)c3)nn2-c2ccccc2)[C@H](c2ccc(F)c(F)c2)O1` (racemic) [Compound I-545], under setting [2], the IC50 was < 100 nM.

For the compound `CNC(=O)c1cc(-c2nn(-c3ccccc3)c(NC(=O)N[C@@H]3CN(CCF)O[C@H]3c3ccc(F)c(F)c3)c2C)cnc1OC` (racemic) [Compound I-550], the IC50 under setting [2] is < 100 nM.

Consider `CNC(=O)c1cc(-c2nn(-c3ccccc3)c(NC(=O)N[C@@H]3CN(CC(F)F)O[C@H]3c3ccc(F)c(F)c3)c2C)cnc1OC` (racemic) [Compound I-551], for which the IC50 under setting [2] was < 100 nM.

As for `COCCN1C[C@@H](NC(=O)Nc2c(C)c(-c3ccc(OC)cc3)nn2-c2ccccc2)[C@H](c2ccnc(F)c2)O1` (racemic) [Compound I-554], the IC50 under setting [2] is < 100 nM.

Take `CCN1C[C@@H](NC(=O)Nc2c(C)c(OCC3CCNCC3)nn2-c2ccccc2)[C@H](c2ccc(F)c(F)c2)O1` (racemic) [Compound I-559]: under setting [2], the IC50 was < 100 nM.

Consider `Cc1c(OCC2CCNCC2)nn(-c2ccccc2)c1NC(=O)N[C@@H]1CN(CCF)O[C@H]1c1ccc(F)c(F)c1` (racemic) [Compound I-560], for which the IC50 under setting [2] is < 100 nM.

For the compound `Cc1c(OCC2CCNCC2)nn(-c2ccccc2)c1NC(=O)N[C@@H]1CN(CC(F)F)O[C@H]1c1ccc(F)c(F)c1` (racemic) [Compound I-561], the IC50 under setting [2] was < 100 nM.

Consider `CCN1C[C@@H](NC(=O)Nc2c(C)c(OCC3CCNCC3)nn2-c2ccccc2)[C@H](c2ccc(F)cc2)O1` (racemic) [Compound I-562], for which the IC50 under setting [2] is < 100 nM.

Regarding `CCN1C[C@@H](NC(=O)Nc2c(C)c(OCC3CCN(C(C)=O)CC3)nn2-c2ccccc2)[C@H](c2ccc(F)c(F)c2)O1` (racemic) [Compound I-563], the IC50 under setting [2] is < 100 nM.

Take `CC(=O)N1CCC(COc2nn(-c3ccccc3)c(NC(=O)N[C@@H]3CN(CCF)O[C@H]3c3ccc(F)c(F)c3)c2C)CC1` (racemic) [Compound I-564]: under setting [2], the IC50 is < 100 nM.

Consider `CC(=O)N1CCC(COc2nn(-c3ccccc3)c(NC(=O)N[C@@H]3CN(CC(F)F)O[C@H]3c3ccc(F)c(F)c3)c2C)CC1` (racemic) [Compound I-565], for which the IC50 under setting [2] was < 100 nM.

`CCN1C[C@@H](NC(=O)Nc2c(C)c(OCC3CCN(C(C)=O)CC3)nn2-c2ccccc2)[C@H](c2ccc(F)cc2)O1` (racemic) [Compound I-566]: under setting [2], the IC50 was < 100 nM.

Take `Cc1c(OCC2CCN(C)CC2)nn(-c2ccccc2)c1NC(=O)N[C@@H]1CN(CCF)O[C@H]1c1ccc(F)c(F)c1` (racemic) [Compound I-567]: the IC50 under setting [2] is < 100 nM.

For `Cc1c(OCC2CCN(C)CC2)nn(-c2ccccc2)c1NC(=O)N[C@@H]1CN(CC(F)F)O[C@H]1c1ccc(F)c(F)c1` (racemic) [Compound I-568], under setting [2], the half-inhibitory concentration (IC50) was < 100 nM.

As for `CCN1C[C@@H](NC(=O)Nc2c(C)c(OCC3CCN(C)CC3)nn2-c2ccccc2)[C@H](c2ccc(F)cc2)O1` (racemic) [Compound I-569], the IC50 under setting [2] is < 100 nM.

Turning to `CCN1C[C@@H](NC(=O)Nc2c(C)c(-c3cnc(OC)c(C(=O)NC)c3)nn2-c2ccccc2)[C@H](c2ccc(F)cc2)O1` (racemic) [Compound I-570], under setting [2], the IC50 was < 100 nM.

For `CNC(=O)c1cc(-c2nn(-c3ccccc3)c(NC(=O)N[C@@H]3CN(CC(F)(F)F)O[C@H]3c3ccc(F)c(F)c3)c2C)cnc1OC` (racemic) [Compound I-571], the IC50 under setting [2] is < 100 nM.

Regarding `COCCN1CC(NC(=O)Nc2c(C)c(-c3cnc(N4CC5(CCO5)C4)nc3)nn2-c2ccccc2)C(c2ccnc(F)c2)O1` (racemic) [Compound I-581], under setting [3], the IC50 is < 100 nM.

For `COCCN1C[C@@H](NC(=O)Nc2c(C)c(-c3cnc(N4CC(N(C)C)C4)nc3)nn2-c2ccccc2)[C@H](c2ccnc(F)c2)O1` (racemic) [Compound I-582], the IC50 under setting [3] is < 100 nM.

Take `COCCN1C[C@@H](NC(=O)Nc2c(C)c(-c3cnc(N4CC(N5CCOCC5)C4)nc3)nn2-c2ccccc2)[C@H](c2ccnc(F)c2)O1` (racemic) [Compound I-583]: the IC50 under setting [3] was < 100 nM.

Turning to `COCCN1C[C@@H](NC(=O)Nc2c(C)c(-c3cnc(N(C)CCOC)nc3)nn2-c2ccccc2)[C@H](c2ccnc(F)c2)O1` (racemic) [Compound I-588], the IC50 under setting [3] is < 100 nM.

Regarding `COCCN1C[C@@H](NC(=O)Nc2c(C)c(-c3cnc(N(C)CCCN(C)C)nc3)nn2-c2ccccc2)[C@H](c2ccnc(F)c2)O1` (racemic) [Compound I-589], the IC50 under setting [3] was < 100 nM.

For `COCCN1C[C@@H](NC(=O)Nc2c(C)c(-c3cnc4oc(C)nc4c3)nn2-c2ccccc2)[C@H](c2ccnc(F)c2)O1` (racemic) [Compound I-596], the half-maximal inhibitory concentration (IC50) under setting [3] is < 100 nM.

Consider `COCCN1C[C@@H](NC(=O)Nc2c(C)c(-c3cnc4c(c3)OCO4)nn2-c2ccccc2)[C@H](c2ccnc(F)c2)O1` (racemic) [Compound I-606], for which the IC50 under setting [3] was < 100 nM.
